Results from patent publication US20230203174A1, “COMPOSITION FOR PREVENTING OR ALLEVIATING CELLULAR SENESCENCE” (SEOUL NATIONAL UNIVERSITY R&DB FOUNDATION, priority 2021, published 2023).
Where two headings read alike, the source gives them in different places.

Assays:
Cdkn1a (p21) mRNA = test: RT-qPCR of senescence marker Cdkn1a; type: cell-based, mouse
Source text: (§1) RNA Preparation and Quantitative Real-Time PCR (RT-qPCR)

MC3T3-E1 cells [1] = test: SA-β-gal staining of senescent cells; type: cell-based, mouse
Experimental: Senescence Associated-β-Galactosidase (SA-β-gal) Staining
SA-β-gal staining was performed with reference to the paper (2009) published by the Debacq-Chainiaux group. Cells cultured on coverslips were fixed in 4% paraformaldehyde at room temperature for 6 min. After washing cells three times with PBS, the cells were reacted for 16-24 hours in a staining solution [40 mM Na2HPO4, pH 6.0, 150 mM NaCl, 2 mM MgCl2, 5 mM K3Fe(CN)6, 5 mM K4Fe(CN)6 and 1 mg/ml X-Gal]. After washing 3 times with PBS, it was permeabilized with PBS containing 0.2% Triton X-100 at room temperature for 15 minutes. For nuclear staining, a mounting solution containing 4′,6-diamidino-2-phenylindole (DAPI) was used (AR-6501-01; ImmunoBioScience Corp., Mukilteo, Wash., USA). Images were acquired using an Eclipse TS-100 inverted microscope (Nikon). Using the ImageJ program, nucleus (DAPI) and SA-b-gal positive cells were counted in each image and compared as an average of % SA-β-gal positive cells (SA-β-gal positive cells/nuclear number×100) using the ImageJ program using 10 images of different parts per group.

[2] = test system: CCL2, CCL5, and CCL7 mRNA; test: RT-qPCR of SASP factors CCL2, CCL5, CCL7; type: cell-based, mouse
Source text: as §1

MC3T3-E1 cells [3] = test: Osteoblast differentiation by ALP and Alizarin Red S staining; type: cell-based, mouse
Source text: In addition, it was shown that and a level of protein and an expression of cdkn1a (p21) mRNA which is a molecular marker of cellular senescence, were increased by H2O2 treatment (B and C).

PADI2 [4] = test: PADI2 expression (RT-qPCR, Western blot) in MC3T3-E1 cells; type: cell-based, mouse
Source text: as §1

p21 = settings: MC3T3-E1 cells, H2O2 treatment
Experimental: (§2) Protein was extracted using a PRO-PREP protein extraction solution (Cat #17081, iNtRON, Korea) according to a manufacturer's protocol. The same amount of protein was transferred to a polyvinylidene fluoride (PVDF) membrane after sodium dodecyl sulfate polyacrylamide gel electrophoresis (SDS-PAGE). After blocking with 5% non-fat milk, membranes were blotted in primary antibody solution at 4° C. in a refrigerator overnight. A membrane reacted with a primary antibody was washed 3 times every 5 minutes with PBS-0.05% Tween 20 solution, then reacted with a secondary antibody for 1-2 hours at room temperature, and then the membrane was washed 3 times with PBS-0.05% Tween 20 solution for 5 minutes. Thereafter, the images were acquired on an ImageQuant LAS4000 Mini (GE Healthcare) using chemiluminescence (Clarity™ Western ECL Substrate, #170-5060; Bio-Rad). α-Tubulin or β-actin was used as a protein loading control.

PADI2 [5] = settings: human-derived mesenchymal stromal cells (hMSC), 100 μM H2O2
Experimental: as §2
Total RNA was isolated using the RNeasy Mini Kit (Qiagen, Hilden, Germany). Total RNA (1 μg) was reverse transcribed into cDNA using PrimeScript RT Master Mix (Perfect Real Time) (RR036A; TaKaRa, Japan) and a real-time PCR was performed on an STEPONEPLUS™ Real-Time PCR System (APPLIED BIOSYSTEMS™) instr μMent using TB GREEN® PREMIX EX TAQ™ (RR420A; TaKaRa). […]

[6] = test system: NFκB RelA transcription factor; settings: MC3T3-E1 cells, 100 μM H2O2 for 24 h
Experimental: After collecting cells with PBS, a cell pellet was equally divided into two tubes for whole-cell lysate and cell fractionation. The whole-cell lysate prepared with 100 μL of lysis buffer composed of 25 mM Tris-HCl pH 7.4, 150 mM NaCl, 1% NP-40, 1 mM EDTA, 5% glycerol, protease inhibitor cocktail (Roche, #11-836-153-001), phosphatase inhibitor cocktail 2 and 3 (Sigma-Aldrich, P5726 and P004 SEQ ID NO: 4). The nuclear-cytoplasmic fraction was isolated using NEPER™ nuclear and cytoplasmic extraction reagents (78855; Life Technologies, Carlsbad, Calif., USA) according to a manufacturer's protocol. Protein concentration was determined using the Pierce™ BCA Protein Assay Kit (Thermo Fisher Scientific). The whole-cell lysate, a cytoplasmic extract and a nuclear extract were separated by SDS-PAGE, transferred to PVDF membrane, and then Western blot analysis was performed with designated primary and secondary antibodies. Tubulin and Lamin A/C were used as cytoplasmic and nuclear markers, respectively.
Cells cultured on coverslips were fixed in 4% paraformaldehyde, blocked with PBS containing 2% BSA, and then reacted in a refrigerator overnight in a primary antibody solution. […] A degree of fluorescence expression was observed using a confocal microscope (LSM 800, Carl Zeiss), and representative cells were selected and photographed.

[7] = 1 μM Bay11-7082 co-treated with 100 μM H2O2
[8] = Padi2 knockdown plus NFκB inhibition

For `Cc1ccc(S(=O)(=O)/C=C/C#N)cc1` [Bay11-7082], the “expression of Cdkn1a” value (Cdkn1a (p21) mRNA; [7]) was “reduced”, the “Cdkn1a expression increased by Padi2 knockdown” value (Cdkn1a (p21) mRNA; [8]) was “decreased” and the “number of senescent cells increased by H2O2 alone” value (MC3T3-E1 cells [1]; [7]) was “reduced”. The “number of senescent cells increased by Padi2 knockdown” value (MC3T3-E1 cells [1]; [8]) was “decreased”, the “expressions of CCL2, CCL5, and CCL7 (mRNA levels) increased by H2O2” value ([2]; combined with H2O2 treatment) was “significantly reduced” and the “function degradation of osteoblast (ALP and ARS staining)” value (MC3T3-E1 cells [3]; caused by excessive ROS and Padi2 knockdown) was “restored”.

For `OO` [H2O2, hydrogen peroxide], the “expression of cdkn1a (p21) mRNA” value (Cdkn1a (p21) mRNA; MC3T3-E1 cells, H2O2 treatment) was “increased”, the “number of SA-β-gal positive cells” value (MC3T3-E1 cells [1]; MC3T3-E1 cells, 50 μM or 100 μM H2O2 for 3 days) was “increased in a H2O2 concentration-dependent manner” and the “Padi2 mRNA level” value (PADI2 [4]; MC3T3-E1 cells, 100 μM H2O2 for 1, 4, and 7 days in differentiation medium, RT-qPCR) was “significantly reduced”. The “expression of PADI2 (mRNA level and protein level)” value (PADI2 [4]; mouse-derived MC3T3-E1 cells, 100 μM H2O2) was “significantly reduced”, the “CCL2, CCL5, and CCL7 in SASP (RNA-seq and RT-qPCR)” value ([2]; upon H2O2 treatment) was “significantly increased” and the “osteoblast differentiation function (ALP and Alizarin Red S staining)” value (MC3T3-E1 cells [3]; MC3T3-E1 cells, excessive ROS (H2O2)) was “significantly inhibited”. For the same compound, the “level of p21 protein” value (p21) was “increased”, the “expression of PADI2 (mRNA level and protein level)” value (PADI2 [5]) was “significantly reduced” and the “NFκB RelA activation and transfer from cytoplasm to nucleus” value [6] was “migration to the nucleus was observed”.
